Test results from US8309140B2, “Effect of porcine sheath proteins on the regeneration activity of periodontal ligament” (priority 2005, dated 2012).
“Also recorded” adds a separate entry of the source.

Legend:
[1] = test system: human periodontal ligament (HPDL) cells; experiment: ALP inducing activity of HPDL cells on cell culture system; format: cell-based; settings: for ALP inducing activity of HPDL cells (amelogenins and peptides based on 6 kDa amelogenin): purified porcine amelogenins and synthetic peptides; for ALP activity of HPDL cells (porcine sheath proteins and synthetic peptides): 50 μg/ml protein or peptide, TGF-β1 50 ng/ml, BMP-2 500 ng/ml, 10 nM 1α-25dihydroxy-Vitamin D3
Excerpt: Human periodontal ligament (HPDL) cells were obtained according to the method of Somerman et al., (1988) from healthy premolars which were extracted from the patients for orthodontic reasons. The cells were precultured for 4-6 passages with a-MEM medium to establish the primary cell line. The cells were maintained in the alpha modification of Eagle's medium (α-MEM; Life Technologies, Grand Island, N.Y., USA) containing 10% fetal bovine serum (FBS; Asahi Technoglass, Chiba, Japan) and 1% antibiotics (100 U/ml of Penicillin-G and 100 μg/ml of Streptomycin sulfate; Gibco BRL, Grand Island, N.Y., USA) at 37° C. in a humidified 5% CO2 atmosphere. The ST2 cells (Riken Cell Bank, Tsukuba, Japan), an osteoblast-like mouse bone marrow stromal cell line, were cultured under the same conditions.
HPDL cells were distributed in 96-well plates at a density of approximately 5×10^5 cells per a well and incubated for 24 h. The growth medium was then changed to contain 10 nM of 1α-25dihydroxy-Vitamin D3 (CALBIOCHEM, La Jolla, Calif.) and 50 μg/ml (final concentration) of fractionated enamel protein samples or synthesized peptides dissolved in ultrapure water. After 96 additional hours of incubation, the cells were washed once with PBS, and ALP activity was determined after a 10 min incubation at 37° C. in 10 mM p-nitrophenylphosphate (substrate) in 100 mM 2-amino-2-methyl-1,3-propanediol-HCl buffer (pH 10.0) containing 5 mM MgCl2. After adding 0.2 M NaOH, which stopped the reaction, the absorbance at 405 nm was read on a plate reader.
HPDL cells of approximately 5×10^5 cells per well were distributed in 96-well plates and incubated for 24 h. The growth medium was then changed to contain 10 nM of 1α-25dihydroxy-Vitamin D3 and 50 μg/ml (final concentration) of purified sheath protein or synthesized peptide. After 96 additional hours of incubation, ALP activity was determined using p-nitrophenylphosphate as a substrate.
The bioactivities of these synthetic peptides were tested their cytodifferentiation activity of HPDL cells and ST2 cells by determination of increasing ALP inducing activity on cell culture system. When these peptides applied in cell culture system, the concentration of their peptides was employed around 1 ng/ml. In the case of TGF-1, the concentration was 10 ng/ml.
Normal human periodontal ligament fibroblasts were maintained in an α-minimal essential medium (α-MEM) containing 10% fetal bovine serum, either with or without 10 nM 1α-25dihydroxy-vitamin D3 and 1% antibiotics (100 U/mL of penicillin G and 100 μg/mL of streptomycin sulfate) at 37° C. in a humidified atmosphere of air containing 5% CO2. Another cell line, ST2 cells, was obtained from an osteoblast-like mouse bone marrow stromal cell line. These cells were cultured in the same conditions as those described above.
The ALP inducing activities of synthetic peptides using the cell culture of HPDL cells and ST2 cells were examined. The HPDL cells were distributed in 96-well plates at a density of approximately 5×10^5 cells per well and incubated for 24 h. The medium was then changed to α-MEM containing 10 nM of 1α-25dihydroxy-vitamin D3 and either synthetic peptides or growth factors dissolved in ultra-pure water. After 96 h of incubation, the cells were washed once with phosphate-buffered saline, and 10 mM ρ-nitrophenylphosphate in 100 mM 2-amino-2-methel-1,3-propanediol-HCl buffer (pH 10.0) containing 5 mM MgCl2 was added. The ALP activity was determined after 10 min incubation at 37° C. and the absorbance at 405 nm was read using a plate reader, after adding 0.2 M NaOH to stop the reaction. […] When the synthetic peptides were applied in the cell culture system, their final concentrations were 25 or 50 μg/mL. A TGF-β1 receptor inhibitor (SB431542, 10 μM) was applied to the HPDL cell culture system to examine their influence relative to the ALP inducing activity of the synthetic peptides.

[2] = test system: buccal dehiscence type bone defects created along the roots of the canine mandibular premolars; experiment: Cementum regeneration (CR) activity, eight-week histological analysis on buccal dehiscence model of dogs; format: in vivo, beagle dogs; settings: for thickness of regenerated cementum: eight weeks following application, measured at 3 points (apical, middle, coronal), beagle dogs; for CR (cementum regeneration) activity: histological analysis eight weeks after application, buccal dehiscence model of dogs
Protocol: Approximately 2-year-old male beagle dogs (approximate 15 kg) were used to detect the CR activities after the applications of several enamel protein samples. They had intact dentition and a healthy periodontium. The surgical preparation of buccal dehiscence type bone defects was carried out according to the modified method of Hammarström (1997) under general anesthesia induced and maintained by an endotracheal tube with 1.5-2.0% of halothane (Takeda Yakuhin Co. LTD, Osaka, Japan) in 100% oxygen, after premedicated with intramuscular injection of the mixture of Ketamine HCl (9.8 mg/kg: Sankyo Co. LTD, Tokyo, Japan) and Xylazine HCl (0.7 mg/kg: Bayer Co. LTD, Tokyo, Japan).
Contralateral buccal mucoperiosteal flaps were raised after an intracrevicular incision extending from the first mandibular premolar to the first mandibular molar. After the removing the buccal alveolar bone plate covering the mesial root of the second premolars, the exposed periodontal ligament and cementum of these areas were completely removed by means of a dental bur. At the apical end of the defect, a notch was created to identify the apical extension of the defect, when histological analyses. The distance between the cervical margin and the apical end of the defect was standardized at about 5 mm. The exposed root dentin surfaces were conditioned for 2 min with cotton pellets soaked in a 19% EDTA solution, and then carefully rinsed with sterile saline. Then 50 μg of each enamel protein sample in 100 μl of cold sterile distilled water was applied over the entire buccal surface area of the exposed roots. Finally, the mucoperiosteal flaps were repositioned to their level prior to surgery and sutured. Distilled water was used as a negative control and EMDOGAIN® (BIORA AB, Malmö, Sweden) served as a positive control.
After 8 weeks the dogs were terminated by anesthetization with sodium pentobarbital. Their heads were fixed by perfusion with 0.1 M sodium cacodylate buffer (pH 7.4) containing 4% paraformaldehyde and 1% glutaraldehyde. Tissue blocks, which included teeth, bone, and tissue were dissected and demineralized in 10% formic acid containing 0.06 M sodium citrate and 0.1 M citric acid. All specimens were dehydrated using a graded series of alcohols and then embedded in paraffin. Serial sections (5 μm thick) were made and stained with hematoxylin/eosin for examination by light microscopy.
The length and thickness of cementums regenerated after application of fractionated and purified enamel protein samples and EMD were measured on the computer monitor of histological results. The length of the regenerated cementum was straight distance between the apical end of the defect and coronal extention of the new cementum, as well as to the crest of the new alveolar bone. Also, the thickness of cementum was measured at coronal end, apical end and between them.
CR promoting activity of enamel proteins obtained at each extracted and purified step were examined by eight-week histological analysis of buccal dehiscence type bone defects created along the roots of canine mandible (FIG. 1).

6 kDa amelogenin: derived from N-terminal side of 20 kDa amelogenin (MPLPPHPGHPGYINFSYEVLTPLKWYQNMIRHPYTSYGYEPMGGW; porcine 6 kDa amelogenin; listed as Sus scrofa)
ALP inducing activity of HPDL cells (amelogenins and peptides based on 6 kDa amelogenin) [1]: activity like TGF-β1; also recorded: strongest ALP inducing activity of HPDL cells

C=C1/C(=C\C=C2/CCC[C@]3(C)[C@@H]([C@H](C)CCCC(C)(C)O)CC[C@@H]23)C[C@@H](O)C[C@@H]1O [1α-25dihydroxy-vitamin D3, reference compound]
levels of ALP activity of HPDL cells by addition of 1α-25dihydroxy-vitamin D3 ([1]; 10 nM, with application of ESP synthetic peptides or TGF-β1): enhanced and stabilized

NC(=O)c1ccc(-c2nc(-c3ccc4c(c3)OCO4)c(-c3ccccn3)[nH]2)cc1 [SB431542, reference compound]
ALP inducing activity of HPDL cells when adding TGF-β1 receptor inhibitor SB431542 ([1]; 10 μM SB431542, 10 nM 1α-25dihydroxy-vitamin D3): significantly inhibited the activity of TGF-β1

A-1-1: shorter peptide synthesized based on the sequence of A-1 (MPLPPH; 6 aa from 1 to 6 in sequence 9, 14, 33 and 34; listed as Homo sapiens)
concentration at which the peptide promotes the bioactivity (ALP inducing activity of HPDL cells), high concentration ([1]; cell culture system): 1 µg/mL | ALP inducing activity of HPDL cells (amelogenins and peptides based on 6 kDa amelogenin) [1]: promote ALP inducing activity | ALP inducing activity of HPDL cells (amelogenins and peptides based on 6 kDa amelogenin) ([1]; listed as SEQ ID NO: 6): had ALP inducing activity

A-1-2: shorter peptide synthesized based on the sequence of A-1 (PGHPGY; 6 aa from 7 to 12 in sequence 9, 14, 33 and 34; listed as Homo sapiens)
concentration at which the peptide promotes the bioactivity (ALP inducing activity of HPDL cells), low concentration ([1]; cell culture system): 10 ng/mL | ALP inducing activity of HPDL cells (amelogenins and peptides based on 6 kDa amelogenin) [1]: promote ALP inducing activity

A-1: N-terminal side peptide synthesized based on the sequence of 6 kDa amelogenin (MPLPPHPGHPGYINF; 15 aa from 1 to 15 in sequence 14, 33 and 34; listed as Homo sapiens)
ALP inducing activity of HPDL cells (amelogenins and peptides based on 6 kDa amelogenin) [1]: showed the strong bioactivity

C-1: 15-residue peptide, position 132-146 of porcine 17 kDa sheath protein (VEGPMVQQQVAPSEK; 15 aa from 132 to 146 in sequence 10; listed as Sus scrofa)
ALP activity of HPDL cells (porcine sheath proteins and synthetic peptides) ([1]; 96 h): not so strong; also recorded: enhanced the ALP activity of the HPDL cells

SDKPPKPELPVDF (13 aa from 144 to 156 in sequence 36; listed as Homo sapiens) [H-2′]
ALP inducing activity of HPDL cells (Example 4) ([1]; peptides 50 μg/mL, TGF-β1 1 ng/mL, BMP-2 1 μg/mL, 10 nM 1α-25dihydroxy-vitamin D3, 96 h): showed the same inductive properties

B1: 25 kDa amelogenin: most abundant uncleaved porcine amelogenin polypeptide (protein, UniProt P45561 17-189, looked up)
Amelogenin: MPLPPHPGHPGYINFSYEVLTPLKWYQNMIRHPYTSYGYEPMGGWLHHQIIPVVSQQTPQSHALQPHHHIPMVPAQQPGIPQQPMMPLPGQHSMTPTQHHQPNLPLPAQQPFQPQPVQPQPHQPLQPQSPMHPIQPLLPQPPLPPMFSMQSLLPDLPLEAWPATDKTKREEVD
ALP inducing activity of HPDL cells (amelogenins and peptides based on 6 kDa amelogenin) [1]: activity like TGF-β1

B2: 17 kDa sheath protein: Porcine 17 kDa sheath protein, N-terminal cleavage product of sheathlin containing 170 amino acids (protein, listed as Sus scrofa)
chain: VPAFPRQPGTPGVASLSLETMRQLGSLQGLNMLSQYSRFGFGKSFNSLWMHGLLPPHSSFQWMRPREHETQQYEYSLPVHPPPLPSQPSLQPQQPGQKPFLQPTVVTSIQNPVQKGVPQPPIYQGHPPLQQVEGPMVQQQVAPSEKPPEAELPGLDFADPQDPSMFPIAR
modifications: porcine sheath protein
notes: Porcine 17 kDa sheath protein, N-terminal cleavage product of sheathlin containing 170 amino acids
ALP activity of HPDL cells (porcine sheath proteins and synthetic peptides) ([1]; 96 h): enhanced | ALP activity of HPDL cells (porcine sheath proteins and synthetic peptides) ([1]; 96 h, listed as 17 kDa ESP): weaker than that of TGF-β1 | thickness of regenerated cementum [2]: 31.77±3.78 μm | CR (cementum regeneration) activity [2]: induced a thick acellular cementum; also recorded: induced thick acellular cementum near the apical end of the defect, but the CR was scarce near the coronal end; also recorded: induced a smaller area of cementum regeneration; also recorded: exhibited the CR activity | CR (cementum regeneration) activity ([2]; listed as 17 kDa ESP): stronger cementum regeneration promoting activity

B3: 15 kDa sheath protein: N-terminal cleavage product of sheathlin containing 130 amino acids, lacks C-terminal 40 amino acids of 17 kDa sheath protein (protein)
chain: VPAFPRQPGTPGVASLSLETMRQLGSLQGLNMLSQYSRFGFGKSFNSLWMHGLLPPHSSFQWMRPREHETQQYEYSLPVHPPPLPSQPSLQPQQPGQKPFLQPTVVTSIQNPVQKGVPQPPIYQGHPPLQ
ALP activity of HPDL cells (porcine sheath proteins and synthetic peptides) ([1]; 96 h): showed the increase of ALP inducing activity than that of 13 kDa sheath protein | ALP activity of HPDL cells (porcine sheath proteins and synthetic peptides) ([1]; 96 h, listed as 15-kDa sheath protein): not | thickness of regenerated cementum [2]: 8.13±2.06 μm | CR (cementum regeneration) activity [2]: scarce CR activity
